Results taken from ChEMBL document CHEMBL5143683, “Explorations of novel pyridine-pyrimidine hybrid phosphonate derivatives as aurora kinase inhibitors” (Bioorg Med Chem Lett, 2022).
Calls of active or inactive are those of the source. No cut-off for these calls is given here.

How the values were obtained:
A549 = assay: Anticancer activity against human A549 cells assessed as reduction in cell viability measured after 24 hrs by MTT assay; type: functional, cell-based; settings: A549, 24 h
HepG2 [1] = assay: Anticancer activity against human HepG2 cells assessed as reduction in cell viability measured after 24 hrs by MTT assay; type: functional, cell-based; settings: HepG2, 24 h
HeLa [2] = assay: Anticancer activity against human HeLa cells assessed as reduction in cell viability measured after 24 hrs by MTT assay; type: functional, cell-based
MCF7 = assay: Anticancer activity against human MCF7 cells assessed as reduction in cell viability measured after 24 hrs by MTT assay; type: functional, cell-based; settings: MCF7, 24 h
HL-60 = assay: Anticancer activity against human HL-60 cells assessed as reduction in cell viability measured after 24 hrs by MTT assay; type: functional, cell-based; settings: HL-60, 24 h
[3] = Cytotoxicity against human L02 cells assessed as reduction in cell viability measured after 24 hrs by MTT assay; type: toxicity, cell-based
[4] = Selectivity index, ratio of IC50 for human L02 cells to IC50 for human Hep-G2 cells; type: toxicity; settings: L02 cells and Hep-G2 cells, read-out: Ratio IC50
Aurora kinase A = molecular target: T1, Aurora kinase A (Homo sapiens, UniProt O14965); assay: Inhibition of Aurora A (unknown origin) using kemptide acetate as substrate measured after 30 mins by kinase-glo luminescence assay
T1 sequence (O14965 whole entry): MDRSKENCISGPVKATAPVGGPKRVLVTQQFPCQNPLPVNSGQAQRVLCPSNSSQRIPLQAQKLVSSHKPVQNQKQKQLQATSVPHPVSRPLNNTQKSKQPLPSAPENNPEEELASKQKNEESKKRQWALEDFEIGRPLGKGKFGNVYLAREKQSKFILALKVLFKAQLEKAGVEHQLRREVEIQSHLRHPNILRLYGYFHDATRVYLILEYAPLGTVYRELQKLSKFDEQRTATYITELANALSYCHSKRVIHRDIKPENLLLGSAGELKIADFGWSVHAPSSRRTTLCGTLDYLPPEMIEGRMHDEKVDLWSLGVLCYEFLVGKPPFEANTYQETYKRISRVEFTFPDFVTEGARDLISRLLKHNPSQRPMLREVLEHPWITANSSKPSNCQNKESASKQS

Aurora kinase B = Aurora kinase B (Homo sapiens, UniProt Q96GD4); assay: Inhibition of Aurora B (unknown origin) using kemptide acetate as substrate measured after 30 mins by kinase-glo luminescence assay
HepG2 [5] = assay: Induction of morphological changes in human HepG2 cells assessed as cell detachment at IC50 by inverted microscopy; type: functional, cell-based
HepG2 [6] = assay: Induction of morphological changes in human HepG2 cells assessed as […] at IC50 by inverted microscopy; type: functional, cell-based
HepG2 [7] = assay: Induction of morphological changes in human HepG2 cells assessed as cell shrinkage at IC50 by inverted microscopy; type: functional, cell-based
HepG2 [8] = assay: Induction of morphological changes in human HepG2 cells assessed as reduction in number of viable cells at IC50 by inverted microscopy; type: functional, cell-based
HeLa [9] = assay: Induction of morphological changes in human HeLa cells assessed as cell detachment at IC50 by inverted microscopy; type: functional, cell-based
HeLa [10] = assay: Induction of morphological changes in human HeLa cells assessed as […] at IC50 by inverted microscopy; type: functional, cell-based
HeLa [11] = assay: Induction of morphological changes in human HeLa cells assessed as cell shrinkage at IC50 by inverted microscopy; type: functional, cell-based
HeLa [12] = assay: Induction of morphological changes in human HeLa cells assessed as reduction in number of viable cells at IC50 by inverted microscopy; type: functional, cell-based

Sequence of Aurora kinase B (Q96GD4 whole entry): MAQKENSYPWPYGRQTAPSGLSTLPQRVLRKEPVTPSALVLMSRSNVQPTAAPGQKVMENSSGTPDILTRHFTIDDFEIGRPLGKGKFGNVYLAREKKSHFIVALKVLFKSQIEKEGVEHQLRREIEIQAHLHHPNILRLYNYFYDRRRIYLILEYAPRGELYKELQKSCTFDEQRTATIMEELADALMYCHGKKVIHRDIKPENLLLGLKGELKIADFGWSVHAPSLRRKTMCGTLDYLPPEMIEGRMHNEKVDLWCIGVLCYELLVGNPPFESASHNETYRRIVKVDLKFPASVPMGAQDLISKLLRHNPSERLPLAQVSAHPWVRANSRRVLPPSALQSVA

| SMILES | IC50 (A549) [µM] | IC50 (HepG2 [1]) [µM] | IC50 (HeLa [2]) [µM] | IC50 (MCF7) [µM] | IC50 (HL-60) [µM] | IC50 at 24 h [3] [µM] | selectivity ratio [4] | IC50 (Aurora kinase A) [µM] | IC50 (Aurora kinase B) [µM] | Activity (HepG2 [5]) | Activity (HepG2 [6]) | Activity (HepG2 [7]) | Activity (HepG2 [8]) | Activity (HeLa [9]) | Activity (HeLa [10]) | Activity (HeLa [11]) | Activity (HeLa [12]) |
| --- | --- | --- | --- | --- | --- | --- | --- | --- | --- | --- | --- | --- | --- | --- | --- | --- | --- |
| CCOP(=O)(OCC)C(Nc1ccc(C)c(Nc2nccc(-c3cccnc3)n2)c1)c1ccc(N)cc1 (stereo not given) | 21.4 | 21.5 | 10.2 | 5.32 | 6.39 | – | – | – | – | – | – | – | – | – | – | – | – |
| CCOP(=O)(OCC)C(Nc1ccc(C)c(Nc2nccc(-c3cccnc3)n2)c1)c1ccc(Cl)cc1 (stereo not given) | 24 | 24.8 | 12 | 6.09 | 7.19 | – | – | – | – | – | – | – | – | – | – | – | – |
| CCOP(=O)(OCC)C(Nc1ccc(C)c(Nc2nccc(-c3cccnc3)n2)c1)c1c[nH]c2ccccc12 (stereo not given) | 18.2 | 19.9 | 8.94 | 4.66 | 4.92 | – | – | – | – | – | – | – | – | – | – | – | – |
| CCOP(=O)(OCC)C(Nc1ccc(C)c(Nc2nccc(-c3cccnc3)n2)c1)N1CCOCC1 (stereo not given) | 29.2 | 30.5 | 20.3 | 6.82 | 7.65 | – | – | – | – | – | – | – | – | – | – | – | – |
| Cc1cc(Nc2cc(N3CCN(C)CC3)nc(Sc3ccc(NC(=O)C4CC4)cc3)n2)n[nH]1 [TOZASERTIB] | 15.1 | 18 | 6.24 | 1.02 | 1.88 | – | – | – | – | – | – | – | – | – | – | – | – |
| CCOP(=O)(OCC)C(Nc1ccc(C)c(Nc2nccc(-c3cccnc3)n2)c1)c1ccccc1 (stereo not given) | 40.2 | 42.1 | 32.1 | 8.88 | 9.02 | – | – | – | – | – | – | – | – | – | – | – | – |
| CCOP(=O)(OCC)C(Nc1ccc(C)c(Nc2nccc(-c3cccnc3)n2)c1)c1ccco1 (stereo not given) | 15.8 | 18.9 | 7.16 | 3.36 | 3.78 | – | – | – | – | – | – | – | – | – | – | – | – |
| CCOP(=O)(OCC)C(Nc1ccc(C)c(Nc2nccc(-c3cccnc3)n2)c1)N1CCCCC1 (stereo not given) | 32.6 | 34 | 21.1 | 6.86 | 8.18 | – | – | – | – | – | – | – | – | – | – | – | – |
| CCOP(=O)(OCC)C(Nc1ccc(C)c(Nc2nccc(-c3cccnc3)n2)c1)c1ccc(OC)cc1 (stereo not given) | 24.3 | 24.9 | 13 | 6.42 | 7.87 | – | – | – | – | – | – | – | – | – | – | – | – |
| CCOP(=O)(OCC)C(Nc1ccc(C)c(Nc2nccc(-c3cccnc3)n2)c1)c1scnc1C (stereo not given) | 13.8 | 18 | 6.02 | 1.55 | 2.32 | 74.9 | 5.5 | 0.033 | 0.015 | – | – | – | – | – | – | – | – |
| CCOP(=O)(OCC)C(Nc1ccc(C)c(Nc2nccc(-c3cccnc3)n2)c1)c1ccc(O)cc1 (stereo not given) | 21.6 | 21.6 | 10.4 | 5.67 | 5.98 | – | – | – | – | – | – | – | – | – | – | – | – |
| CCOP(=O)(OCC)C(Nc1ccc(C)c(Nc2nccc(-c3cccnc3)n2)c1)c1ccc[nH]1 (stereo not given) | 13.6 | 17.5 | 5.81 | 1.59 | 2.11 | 95.3 | 7 | 0.042 | 0.022 | Active | Active | Active | Active | Active | Active | Active | Active |
| CCOP(=O)(OCC)C(Nc1ccc(C)c(Nc2nccc(-c3cccnc3)n2)c1)c1ccc(F)cc1 (stereo not given) | 24.1 | 24.9 | 12.3 | 6.11 | 7.23 | – | – | – | – | – | – | – | – | – | – | – | – |
| CCOP(=O)(OCC)C(Nc1ccc(C)c(Nc2nccc(-c3cccnc3)n2)c1)c1ccncc1 (stereo not given) | 28.1 | 28.5 | 18.1 | 6.38 | 7.22 | – | – | – | – | – | – | – | – | – | – | – | – |
| CCOP(=O)(OCC)C(Nc1ccc(C)c(Nc2nccc(-c3cccnc3)n2)c1)c1ccc(Cl)c(Cl)c1 (stereo not given) | 25 | 25 | 12.9 | 7.07 | 8.24 | – | – | – | – | – | – | – | – | – | – | – | – |
| CCOP(=O)(OCC)C(Nc1ccc(C)c(Nc2nccc(-c3cccnc3)n2)c1)c1ccn[nH]1 (stereo not given) | 15.1 | 18.6 | 6.88 | 2.36 | 3.01 | 83.2 | 5.5 | 0.015 | 0.012 | – | – | – | – | – | – | – | – |
| CCOP(=O)(OCC)C(Nc1ccc(C)c(Nc2nccc(-c3cccnc3)n2)c1)c1ccsc1 (stereo not given) | 15.7 | 18.8 | 7.01 | 2.46 | 2.99 | – | – | – | – | – | – | – | – | – | – | – | – |
| CCOP(=O)(OCC)C(Nc1ccc(C)c(Nc2nccc(-c3cccnc3)n2)c1)c1ccc(C)cc1 (stereo not given) | 22 | 21.9 | 10.6 | 5.96 | 6.75 | – | – | – | – | – | – | – | – | – | – | – | – |
